Data: patent publication US20250084080A1, “CRYSTALLINE AND SALT FORMS OF AN NLRP3 INHIBITOR” (BioAge Labs, Inc., priority 2023, published 2025)

Tests used:
Assay type in all cases: physicochemical
[1] = Hygroscopicity by dynamic vapor sorption (DVS) at 25° C.; settings: for Desorp. (%) / Sorp. (%): DVS 25° C.
Procedure, shortened: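 About 5–10 mg sample was cycled 40-0-95-0-40% RH in 10% steps at 25 °C with water vapour. Equilibrium criterion was 0.002 %/min dm/dt, with a minimum 60 min stability duration and a maximum 360 min per stage.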

[2] = Bulk stability (solid state, 1 week; HPLC, XRPD, IC, color); settings: sodium salt
[3] = as above; design: key to CL (color): A: no change of color; B: slight discoloration; C: medium discoloration; D: strong discoloration
Procedure: Bulk stability of free form Pattern B was evaluated at 25° C./92.5% RH in an open container, at 40° C./75% RH in an open container and at 60° C. in a tight container over 1 week.

[4] = Solubility at 37° C. in buffers and biorelevant media, XRPD of residual solid; settings: for solubility at 2 h / solubility at 24 h: thermodynamic from solid
Procedure, shortened: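 Solids equivalent to 10 mg anhydrous free form were stirred in 5 mL of each medium (pH 1.2 HCl, pH 4.5 acetate, pH 6.8 phosphate, water, FaSSGF, FaSSIF-v1, FeSSIF-v1, HPMC/Pluronic in acetate) at 37 °C, 400 rpm. Sampled at 2 h and 24 h; supernatant analyzed by HPLC plus pH, 24 h residual solid by XRPD.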

[5] = 25° C./92.5% RH open, 40° C./75% RH open, 60° C. tight container
[6] = Solid state, 25° C./92.5% RH, open
[7] = Solid state, 40° C./75% RH, open
[8] = aqueous buffer, pH 4.5 acetate buffer (50 mM), 37° C.
[9] = aqueous buffer, pH 6.8 phosphate buffer (50 mM), 37° C.
[10] = aqueous with cosolvent or surfactant or cyclodextrin, 2% HPMC + 1% Pluronic F68 in pH 4.5 acetate buffer (50 mM), 37° C.
[11] = fassgf or other biorelevant, FaSSGF, pH 1.6, 37° C.
[12] = simulated gastric fluid, pH 1.2 HCl buffer, 37° C.

CCOc1cc(C(=O)N(C)Cc2cnc(CO)c3cn[nH]c23)ccc1-c1cc(F)cc(F)c1.[Na] [Sodium salt Pattern A, 2-ethoxy-3′,5′-difluoro-N-((4-(hydroxymethyl)-1H-pyrazolo[4,3-c]pyridin-7-yl)methyl)-N-methyl-[1,1′-biphenyl]-4-carboxamide sodium salt]
Desorp. (%) ([1]; 0% RH, 1st desorption): 0.05%
Sorp. (%) ([1]; 0% RH, 1st sorption): 0.05%
Desorp. (%) ([1]; 0% RH, 2nd desorption): 0.00%
Sorp. (%) ([1]; 0% RH, 2nd sorption): 0.00%
Desorp. (%) ([1]; 10% RH, 1st desorption): 0.20%
Sorp. (%) ([1]; 10% RH, 1st sorption): 0.17%
Desorp. (%) ([1]; 10% RH, 2nd desorption): 0.18%
Sorp. (%) ([1]; 10% RH, 2nd sorption): 0.14%
Desorp. (%) ([1]; 20% RH, 1st desorption): 0.28%
Sorp. (%) ([1]; 20% RH, 1st sorption): 0.23%
Desorp. (%) ([1]; 20% RH, 2nd desorption): 0.25%
Sorp. (%) ([1]; 20% RH, 2nd sorption): 0.21%
Desorp. (%) ([1]; 30% RH, 1st desorption): 0.35%
Sorp. (%) ([1]; 30% RH, 1st sorption): 0.30%
Desorp. (%) ([1]; 30% RH, 2nd desorption): 0.33%
Sorp. (%) ([1]; 30% RH, 2nd sorption): 0.28%
Desorp. (%) ([1]; 40% RH, 1st desorption): 0.45%
Sorp. (%) ([1]; 40% RH, 1st sorption): 0.38%
Desorp. (%) ([1]; 40% RH, 2nd desorption): 0.94%
Sorp. (%) ([1]; 40% RH, 2nd sorption): 0.38%
Sorp. (%) ([1]; 50% RH, 1st sorption): 0.49%
Desorp. (%) ([1]; 50% RH, 2nd desorption): 1.69%
Sorp. (%) ([1]; 60% RH, 1st sorption): 0.94%
Desorp. (%) ([1]; 60% RH, 2nd desorption): 2.23%
Sorp. (%) ([1]; 70% RH, 1st sorption): 1.87%
Desorp. (%) ([1]; 70% RH, 2nd desorption): 2.55%
Sorp. (%) ([1]; 80% RH, 1st sorption): 2.71%
Desorp. (%) ([1]; 80% RH, 2nd desorption): 3.05%
Sorp. (%) ([1]; 90% RH, 1st sorption): 4.13%
Desorp. (%) ([1]; 90% RH, 2nd desorption): 4.35%
Sorp. (%) ([1]; 95% RH, 1st sorption): 6.60%
Desorp. (%) ([1]; 95% RH, 2nd desorption): 6.60%
XRPD after DVS test ([1]; DVS at 25° C., sodium salt): No form change
Bulk (XRPD) ([2]; 25° C./92.5% RH, open): dissociated to free form Pattern A
Bulk (XRPD) ([2]; 60° C., closed): No form change
Bulk stability, chemical and physical [3, 5]: chemically stable but physically unstable
Degradation by HPLC [3, 5]: no obvious degradation
Bulk (HPLC) Purity [3, 6]: 98.7%
CL (color) [3, 6]: A
Bulk (HPLC) Purity [3, 7]: 98.7%
CL (color) [3, 7]: A
Bulk (XRPD) ([3]; Solid state, 40° C./75% RH, open, sodium salt): dissociated to free form Pattern A
Bulk (HPLC) Purity ([3]; Solid state, 60° C., closed): 98.7%
CL (color) ([3]; Solid state, 60° C., closed): A
pH of supernatant at 24 h ([4]; 2% HPMC + 1% Pluronic F68 in pH 4.5 acetate buffer (50 mM), 37° C.): (4.7)
Solubility compared with the free form Pattern A ([4]; 2% HPMC+1% Pluronic F68 in acetate buffer (pH 4.5)): obviously improved solubility
pH of supernatant at 24 h ([4]; FaSSGF, pH 1.6, 37° C.): (1.8)
pH of supernatant at 24 h ([4]; FaSSIF-v1, pH 6.5, 37° C.): (6.7)
pH of supernatant at 24 h ([4]; FeSSIF-v1, pH 5.0, 37° C.): (5.1)
pH of supernatant at 24 h ([4]; Water, 37° C.): (11.1)
solubility at 2 h [4, 8]: 9.3 µg/mL
solubility at 24 h [4, 8]: 7.4 µg/mL
solubility at 2 h [4, 9]: 3.1 µg/mL
solubility at 24 h [4, 9]: 2.8 µg/mL
solubility at 2 h [4, 10]: 273 µg/mL
solubility at 24 h [4, 10]: 260 µg/mL
solubility at 2 h [4, 11]: 664 µg/mL
solubility at 24 h [4, 11]: 630 µg/mL
pH of supernatant at 24 h ([4]; pH 1.2 HCl buffer, 37° C.): (1.3)
pH of supernatant at 24 h ([4]; pH 4.5 acetate buffer (50 mM), 37° C.): (4.6)
pH of supernatant at 24 h ([4]; pH 6.8 phosphate buffer (50 mM), 37° C.): (7.0)
solubility at 2 h [4, 12]: 608 µg/mL
solubility at 24 h [4, 12]: 511 µg/mL
solubility at 2 h ([4]; FaSSIF-v1, pH 6.5, 37° C.): 10.2 µg/mL
solubility at 24 h ([4]; FaSSIF-v1, pH 6.5, 37° C.): 13.1 µg/mL
solubility at 2 h ([4]; FeSSIF-v1, pH 5.0, 37° C.): 144 µg/mL
solubility at 24 h ([4]; FeSSIF-v1, pH 5.0, 37° C.): 149 µg/mL
solubility at 2 h ([4]; Water, 37° C.): 7.7 µg/mL
solubility at 24 h ([4]; Water, 37° C.): 8.2 µg/mL
